US5451600A, “Substituted tetrahydrobenzopyrrolylfuranoic acid derivatives as phospholipase A2 inhibitors” (Hoffmann-La Roche Inc., priority 1994, dated 1995)
pIC50: −log10 of the molar value.

Assays:
cellular PLA2 = test: Inhibition of Cellular Phospholipase A2 (A23187-stimulated macrophages); type: cell-based; details: 5 μM; rat peritoneal macrophages, A-23187 stimulated
Procedure: II. Inhibition of Cellular Phospholipase A2. - % Inhibition of Cellular PLA2
Resident macrophages were obtained from rats by peritoneal lavage with phosphate buffered saline minus Ca2^++ and Mg2^++ (PBS). Cells were washed 3 times with PBS and resuspended in Dulbecco's Modified Eagle's Medium (GiBco) containing L-glutamine low D-glucose (1000 mg/L), and sodium pyruvate (110 mg/L), supplemented with 10% fetal calf serum. Cells were counted on a Coulter ZBI cell counter and then resuspended to a concentration of 6×10^6 cells/1.5 ml. The cell suspension (1.5 ml culture dishes (35 mm) and the cells were allowed to adhere to the dishes for 90 minutes at 37° C. Dishes were washed 3 times with PBS to remove non-adherent cells. [^14 C]arachidonic acid ([^14 C]-AA, approximately […], were added to the cells (1 uCi/dish) and allowed to incorporate for 120 minutes. Medium containing unincorporated [^14 C]-AA was removed and the cell layer was again washed 3 times with PBS. Inhibitors were dissolved in dimethylsulfoxide (DMSO) and added directly to the macrophages in Hank's Balanced Salt Solution (GiBco) phosphate-buffered, pH 7.4) to obtain the desired final concentration. Cells were incubated with drug or DMSO for 30 minutes at 37° C. and were then stimulated with calcium-ionophore A-23187 (0.75 uM) for 20 minutes. The extracellular medium was removed and the [^14 C] radioactivity released into this medium from AA metabolism was measured by liquid scintillation spectroscopy. The amounts of LTB4 and PGE2 were measured in the extracellular medium by radio immunoassay with specific antisera. The effects of inhibitor were measured as percent inhibition of A23187- stimulated AA metabolite release (^14 C release, PGE2 and LTB4 production) (control) which were calculated from the formula: [formula] IC50 's were calculated as described in the HSF-PLA2 assay.

[1] = target: T1, PLA2 activity in human synovial fluid (HSF) (Homo sapiens, UniProt P14555); test: Phospholipase A2 (PLA2) enzymatic assay - % Inhibition of HSF-PLA2; type: biochemical; details: for inhibition at 5 µM: read-out: % Inhib. of HSF-PLA2 at 5 μM
T1 construct: Synovial fluid was obtained from patients with rheumatoid arthritis; from tissue; host or cells: cell-depleted synovial fluid of patients with rheumatoid arthritis
T1 sequence (P14555 21-144): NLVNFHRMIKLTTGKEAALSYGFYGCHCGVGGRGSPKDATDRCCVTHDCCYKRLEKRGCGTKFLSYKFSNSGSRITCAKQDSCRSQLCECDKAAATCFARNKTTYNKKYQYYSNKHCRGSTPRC
Excerpt: 1, Phospholipase A2 (PLA2) enzymatic assay - % Inhibition of HSF-PLA2
PLA2 assay procedure described by Hope et al., Inflammation 14:543-559 (1.990) was utilized to measure the inhibitory activity of the invention (inhibitor) against PLA2 activity in human synovial fluid (HSF). Synovial fluid was obtained from patients with rheumatoid arthritis. The assay procedure measured the release of [1-^14 C]oleic acid from the sn-2 position of phospholipids in autoclaved Escherichia coli previously grown in media containing [1-^14 C]oleic acid. The standard assay reaction conditions included 1×10^9 Escherichia coil (10,000 dpm ^14 C), 0.15% (v/v) cell-depleted HSF, (which was equivalent to 66 μg protein/mL) 2 mM CaCl2, 150 mM NaCl, 50 mM sodium (N-[2-hydroxyethyl] piperazine-N'-[2-ethanesulfonate]) (HEPES) buffer (pH 7.3), 1% dimethyl sulfoxide (DMSO) and various concentrations of inhibitor in a total volume of 0.5 ml. Inhibitors were dissolved in DMSO and added. The reaction was initiated by addition of HSF, incubated for 30 min at 37° C. and then stopped by addition of 2.5 ml of chloroform/methanol (1:1.5, v/v). The total lipids were extracted by the method of Bligh, E. G., and Dyer, W. J, Can. J. Biochem. Physiol. 37:911-917 (1959) by the further addition of 0.5 mL of chloroform and 1 mL of water with mixing. The lipid extract was redissolved in chloroform/methanol (9:1, v/v) containing 10 ug of carrier oleic acid. The oleic acid was separated from phospholipids by thin layer chromatography using gel-impregnated glass fiber sheets (ITLC type SG sheets). The sheets were preactivated by heating at 110° C. for 30 min. The lipid extract was applied to the sheets and chromatographed for 6 minutes, using hexane/acetic acid (100:1, v/v). The positions on the sheet containing oleic acid and phospholipids were visualized by exposure to iodine vapor and located by comparison to standards. The oleic acid and phospholipid zones were cut from the sheets, shaken individually with 2 ml of ethanol/water (80:20, v/v) and 15 ml of Aquasol, then counted for [^14 C] radioactivity (dpm). PLA2 activity, expressed as percent hydrolysis, was calculated from the formula: [formula] and was corrected for nonenzymatic hydrolysis of the substrate. Percent inhibition due to the presence of drug was calculated from the formula: [formula]
When various concentrations of a Compound of Formula I were tested, the percent inhibition at each concentration was plotted as log concentration (abscissa) versus percent inhibition (ordinate) and the IC50 was determined from this plot.

[2] = tested on: carrageenan-induced paw edema in rats; test: Carrageenan-induced paw edema model of inflammation; type: in vivo; details: 2 hr, rat, read-out: Carrageenan ind. paw edema % Inhib. 2 hr; for inhibition in vivo at 20 mg/kg: 20 mg/Kg ip; for inhibition in vivo at 100 mg/kg: 100 mg/Kg po; for inhibition in vivo at 30 mg/kg: 30 mg/Kg ip

Row | Structure (SMILES) | inhibition at 5 µM [1] | % Inhib. of cellular PLA2 at 5 μM (cellular PLA2) | other results
1 | CCCCCCCCn1c2c(c3cc(Oc4ccc(C(=O)O)o4)ccc31)CCCC2(C)C [Example 134, 5-[(1,2,3,4-tetrahydro-1,1-dimethyl-9-octyl-9H-dibenzo[b,d]pyrrol-6-yl)oxy]-2-furancarboxylic acid] | 86% | 94% | inhibition in vivo at 20 mg/kg [2]: 36%; inhibition in vivo at 100 mg/kg [2]: 48%
2 | CCCCCCCCn1c2c(c3cc(/C(C)=C/c4ccc(C(=O)O)o4)ccc31)C(C)(C)CC(C)(C)C2 [Example 49, (E)-5-[2-methyl-2-(1,2,3,4-tetrahydro-2,2,4,4-tetramethyl-9-octyl-9H-dibenzo[b,d]pyrrol-6yl)ethenyl]-2-furancarboxylic acid] | 83% | 15% | –
3 | O=C(O)c1ccc(Oc2ccc3c(c2)c2c(n3Cc3ccc(Cl)cc3)CCCC2)o1 [Example 139, 5-[[1,2,3,4-tetrahydro-9-(4-chlorophenyl)methyl-9H-dibenzo[b,d]pyrrol-6-yl]oxy]-2-furancarboxylic acid] | 31% | 100% | inhibition in vivo at 30 mg/kg [2]: 68%
4 | CCCCCCCCn1c2c(c3cc(/C(C)=C/c4ccc(C(=O)O)o4)ccc31)CCCC2 [Example 47, (E)-5-[2-methyl-2-(1,2,3,4-tetrahydro-9-octyl-9H-dibenzo[b,d]pyrrol-6-yl)ethenyl]-2-furancarboxylic acid] | 59% | 77% | inhibition in vivo at 20 mg/kg [2]: 70%; inhibition in vivo at 100 mg/kg [2]: 49%
5 | CCCCCCCCn1c2c(c3cc(/C(C)=C/c4ccc(C(=O)O)o4)ccc31)CCCC2(C)C [Example 48, (E)-5-[2-methyl-2-(1,2,3,4-tetrahydro-1,1-dimethyl-9-octyl-9H-dibenzo[b,d]-pyrrol-6yl)ethenyl]-2-furancarboxylic acid] | 75% | 62% | inhibition in vivo at 10 mg/kg ([2]; 10 mg/Kg ip): 58%
6 | CCCCCCCCn1c2c(c3cc(Oc4ccc(C(=O)O)o4)ccc31)CC(C)(C)CC2 [Example 135, 5-[(1,2,3,4-tetrahydro-3,3-dimethyl-9-octyl-9H-dibenzo[b,d]pyrrol-6-yl)oxy]-2-furancarboxylic acid] | 66% | 90% | –
7 | CCCCCCCCn1c2c(c3cc(/C=C/c4ccc(C(=O)O)o4)ccc31)C(C)(C)CC(C)(C)C2 [Example 46, (E)-5-[2-(1,2,3,4-tetrahydro-2,2,4,4-tetramethyl-9-octyl-9H-dibenzo[b,d]pyrrol-6-yl)ethenyl]-2-furancarboxylic acid] | 75% | 48% | –
8 | CCCCn1c2c(c3cc(Oc4ccc(C(=O)O)o4)ccc31)CCCC2 [Example 136, 5-[(1,2,3,4-tetrahydro-9-butyl-9H-dibenzo[b,d]pyrrol-6-yl)oxy]-2-furancarboxylic acid] | 12% | 85% | –
9 | O=C(O)c1ccc(Oc2ccc3c(c2)c2c(n3Cc3ccc(Br)cc3)CCCC2)o1 [Example 137, 5-[[1,2,3,4-tetrahydro-9-(4-bromophenyl)methyl-9H-dibenzo[b,d]pyrrol-6-yl]oxy]-2-furancarboxylic acid] | 36% | 100% | –
10 | Cc1cc(C)c(Cn2c3c(c4cc(Oc5ccc(C(=O)O)o5)ccc42)CCCC3)c(C)c1 [Example 152, 5-[[1,2,3,4-tetrahydro-9-[(2,4,6-trimethylphenyl)methyl]-9H-dibenzo[b,d]pyrrol-6-yl]oxy]-2-furancarboxylic acid] | – | 89% | inhibition at 10 µM ([1]; 10 μM (footnote a), read-out: % Inhib. of HSF-PLA2 (a: % Inhibition at 10 μM)): 72%
11 | CCCCCCCn1c2c(c3cc(Oc4ccc(C(=O)O)o4)ccc31)CCCC2 [Example 140, 5-[(1,2,3,4-tetrahydro-9-heptyl-9H-dibenzo[b,d]pyrrol-6-yl)oxy]-2-furancarboxylic acid] | 55% | 97% | –
12 | Cn1c2c(c3cc(Oc4ccc(C(=O)O)o4)ccc31)CCCC2 [Example 138, 5-[(1,2,3,4-tetrahydro-9-methyl-9H-dibenzo[b,d]pyrrol-6-yl)oxy]-2-furancarboxylic acid] | 39% | 13% | –

The next lines start with results.

Row | inhibition at 5 µM [1] | Structure (SMILES) | % Inhib. of cellular PLA2 at 5 μM (cellular PLA2) | other results
13 | 37% | O=C(O)c1ccc(Oc2ccc3c(c2)c2c(n3Cc3ccc(F)cc3)CCCC2)o1 [Example 146, 5-[[9-[(4-fluorophenyl)methyl]-1,2,3,4-tetrahydro-9H-dibenzo[b,d]pyrrol-6-yl]oxy]-2-furancarboxylic acid] | 98% | inhibition in vivo at 30 mg/kg [2]: 51%; inhibition in vivo at 100 mg/kg [2]: 33%
14 | 65% | O=C(O)c1ccc(Oc2ccc3c(c2)c2c(n3Cc3ccccc3F)CCCC2)o1 [Example 148, 5-[[1,2,3,4-tetrahydro-9-[(2-fluorophenyl)methyl]-9H-dibenzo[b,d]pyrrol-6-yl]oxy]-2-furancarboxylic acid] | 97% | –
15 | 72% | Cc1ccc(Cn2c3c(c4cc(Oc5ccc(C(=O)O)o5)ccc42)CCCC3)cc1 [Example 151, 5-[[1,2,3,4-tetrahydro-9-[(4-methylphenyl)methyl]-9H-dibenzo[b,d]pyrrol-6-yl]oxy]-2-furancarboxylic acid] | 93% | –
16 | 63% | CCCCCCCCn1c2c(c3cc(Oc4ccc(C(=O)O)o4)ccc31)CCCC2c1cccc(OC)c1 (racemic) [Example 153, rac-5-[[1,2,3,4-tetrahydro-1-(3-methoxyphenyl)-9-octyl-9H-dibenzo[b,d]pyrrol-6-yl]oxy]-2-furancarboxylic acid] | 74% | pIC50 ([1]; human synovial fluid PLA2, 30 min at 37° C., pH 7.3): 5.62
17 | 76% | CCCCCCCc1ccc(Cn2c3c(c4cc(Oc5ccc(C(=O)O)o5)ccc42)CCCC3)cc1 [Example 143, 5-[[1,2,3,4-tetrahydro-9-(4-heptylphenyl)methyl-9H-dibenzo[b,d]pyrrol-6-yl]oxy]-2-furancarboxylic acid] | 65% | –
18 | 66% | CCCCCCCCCCCCn1c2c(c3cc(Oc4ccc(C(=O)O)o4)ccc31)CCCC2 [Example 141, 5-[(1,2,3,4-tetrahydro-9-dodecyl-9H-dibenzo[b,d]pyrrol-6-yl)oxy]-2-furancarboxylic acid] | 74% | –
